Literature values as cited in patent publication US8273721B2, “Combination treatment for bladder cancer” (Endo Pharmaceuticals Solutions Inc., priority 2008, dated 2012).

Question: With O=C(OC1CC2CCC(C1)[N+]21CCCC1)C(O)(c1ccccc1)c1ccccc1.[Cl-] (stereo not drawn) [trospium chloride, spiro[8-azoniabicyclo[3,2,1]octane-8,1′pyrrolidinium]-3-[(hydroxydiphenyl-acetyl)-oxy]chloride(1α, 3β, 5α)(9Cl)] as the compound, how does the solubility in water (water) read?
Answer: approximately 1 g/2 mL

Question: With “(2S-cis)-2-[1,2,3,4,6,11-hexahydro-2,5,12-trihydroxy-7-methoxy-6,11-dioxo-4-[[2,3,6-trideoxy-3-[(trifluoroacetyl)amino]-α-L-lyxo-hexopyranosyl]oxyl]-2-naphthacenyl]-2-oxoethyl pentanoate [Valrubicin]” as the compound, how does the “solubility in organic solvents (in words)” value (methylene chloride, ethanol, methanol and acetone) read?
Answer: soluble

Question: What about the “solubility in water (in words)” value (water) of the same compound?
Answer: relatively insoluble
